Laboratory results taken from paper PMC10165889 (European journal of medicinal chemistry, 2023).
Converted amounts (≈) assume the structure as drawn.

Columns and labels:
[1] = assay type: in vitro ADME; details: RED assay
BRD2 (BD1) = BRD2 (BD1) (Homo sapiens, UniProt P25440); assay: TR-FRET binding assay, BRD2
in vitro [2] = details: human, microsomes
BRD4(BD2) = BRD4(BD2) (Homo sapiens, UniProt O60885); assay: TR-FRET binding assay, BRD4
physchem = details: phosphate buffer, pH 7.4
[3] = incubation 0.5h, UV; table
BRD2(BD2) = BRD2(BD2) (Homo sapiens, UniProt P25440); assay: TR-FRET binding assay, BRD2
Chain of BRD2(BD2) (P25440 344-453 limits assumed): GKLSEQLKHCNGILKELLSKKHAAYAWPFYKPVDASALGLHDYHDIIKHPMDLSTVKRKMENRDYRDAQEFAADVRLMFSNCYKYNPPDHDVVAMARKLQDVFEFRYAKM

NALM16 leukaemia cells = assay: Cancer cell viability, CellTiter-Glo, NALM16; assay type: cell-based; details: NALM16, 72 h, read-out: NALM16, IC50
in vitro [4] = details: human; for Papp B→A: Caco-2; for Papp: Caco-2, Caco2 A/B (Papp), A to B
BRD4 (BD1) = BRD4 (BD1) (Homo sapiens, UniProt O60885); assay: TR-FRET binding assay, BRD4
MYC = MYC protein abundance by immunoblotting in MV4-11; assay type: cell-based; details: MV4–11, 6 hours incubation, 100 nM
[5] = test system: HDMB03 medulloblastoma cells; assay: cells; assay type: cell-based; details: Homo sapiens, HD-MB03, 72 h, read-out: HDMB03, IC50
[6] = incubation up to 48h
[7] = In vivo pharmacokinetic study in female CD1 mice; details: P.O. 3mg/kg and 10mg/kg
BET isoforms = assay: BROMOscan profiling; details: all BET isoforms (Figure S2)
[8] = test system: D283 medulloblastoma cells; assay: Cancer cell viability, CellTiter-Glo, D283; assay type: cell-based; details: D283, 72 h, read-out: D283, IC50
[9] = test system: MOLM-13 acute leukaemia cells; assay: Cancer cell viability, CellTiter-Glo, MOLM-13; assay type: cell-based; details: Homo sapiens, MOLM-13, 72 h, read-out: MOLM-13, IC50
in vitro [10] = details: human, plasma

Chain of BRD2 (BD1) (P25440 74-180 limits assumed): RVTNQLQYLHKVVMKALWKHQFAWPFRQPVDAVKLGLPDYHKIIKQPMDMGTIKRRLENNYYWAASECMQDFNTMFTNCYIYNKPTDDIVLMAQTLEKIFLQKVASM

SMILES | PB (human plasma binding) [1] | half-life (in vitro [2]) | solubility at 18 h (physchem) | PAMPA [3] | IC50 (NALM16 leukaemia cells) | also measured
Cc1sc2c(c1C)C(c1ccc(Cl)cc1)=N[C@@H](CC(=O)Nc1ccc(O)cc1)c1nnc(C)n1-2 [1c, birabresib, reference compound] | 97.3% | – | – | – | – | –
Cc1sc2c(c1C)C(c1ccc(Cl)cc1)=N[C@@H](CC(=O)NCc1c[nH]nn1)c1nnc(C)n1-2 [1d] | – | 0.6 h | 57.4 µM (≈ 27.6 µg/mL) | – | – | IC50 (BRD2 (BD1)): 8.6 nM; IC50 (BRD4(BD2)): 1.3 nM
Cc1sc2c(c1C)C(c1ccc(Cl)cc1)=N[C@@H](CC(=O)NCc1cn(C)cn1)c1nnc(C)n1-2 [1f] | – | 0.5 h | 65.7 µM (≈ 32.5 µg/mL) | 0.0 10^−6cm/s | – | –
Cc1sc2c(c1C)C(c1ccc(Cl)cc1)=N[C@@H](CC(=O)Nc1nccs1)c1nnc(C)n1-2 [1o] | 98.2% | 1.1 h | 12.4 µM (≈ 5.99 µg/mL) | – | 6.4 nM | IC50 (BRD2(BD2)): 2.6 nM; IC50 (BRD2 (BD1)): 10.9 nM; Papp B→A (in vitro [4]): 41.1 nm/s; Papp (in vitro [4]): 19.1 nm/s
Cc1sc2c(c1C)C(c1ccc(Cl)cc1)=N[C@@H](CC(=O)Nc1nncs1)c1nnc(C)n1-2 [1q] | – | – | – | – | 3.6 nM | IC50 (BRD4 (BD1)): 6.5 nM; IC50 (BRD2 (BD1)): 1.6 nM; MYC protein abundance (MYC): around 50%; IC50 [5]: 6.6 nM; human plasma stability [6]: 100%; oral bioavailability in words [7]: high bioavailability; affinity in BROMOscan profiling (BET isoforms): high affinity for all BET isoforms
Cc1sc2c(c1C)C(c1ccc(Cl)cc1)=N[C@@H](CC(=O)NCC(=O)O)c1nnc(C)n1-2 [1l] | – | 11.3 h | 66.4 µM (≈ 30.4 µg/mL) | 0.5 10^−6cm/s | – | IC50 [8]: > 8850 nM
Cc1sc2c(c1C)C(c1ccc(Cl)cc1)=N[C@@H](CC(=O)NCCO)c1nnc(C)n1-2 [1n] | – | 3.2 h | 76.1 µM (≈ 33.8 µg/mL) | – | – | IC50 [9]: 8.8 nM; Papp B→A (in vitro [4]): 83.3 nm/s; Papp (in vitro [4]): 7 nm/s; half-life (in vitro [10]): > 100 h
Cc1sc2c(c1C)C(c1ccc(Cl)cc1)=N[C@@H](CC(=O)NCc1cn(C)nn1)c1nnc(C)n1-2 [1e] | – | 0.5 h | 80.8 µM (≈ 40 µg/mL) | 14.0 10^−6cm/s | – | –
Cc1sc2c(c1C)C(c1ccc(Cl)cc1)=N[C@@H](CC(=O)NCc1ccon1)c1nnc(C)n1-2 [1h] | 93.5% | – | – | – | – | –
COC(=O)C(Cc1c[nH]cn1)NC(=O)C[C@@H]1N=C(c2ccc(Cl)cc2)c2c(sc(C)c2C)-n2c(C)nnc21 (some centres unmarked) [1j] | 92.7% | 4.7 h | 68.4 µM (≈ 37.8 µg/mL) | 0.0 10^−6cm/s | – | IC50 (BRD4(BD2)): 6.5 nM; half-life (in vitro [10]): 24.7 h
Cc1sc2c(c1C)C(c1ccc(Cl)cc1)=N[C@@H](CC(=O)NCc1ccccc1)c1nnc(C)n1-2 [1g] | – | 0.1 h | 34.1 µM (≈ 16.7 µg/mL) | – | – | –
Cc1sc2c(c1C)C(c1ccc(Cl)cc1)=N[C@@H](CC(=O)NCc1ncco1)c1nnc(C)n1-2 [1i] | – | – | – | – | 0.8 nM | –
Cc1sc2c(c1C)C(c1ccc(Cl)cc1)=N[C@@H](CC(=O)NCc1ccccn1)c1nnc(C)n1-2 [1k] | – | 0.1 h | 72.5 µM (≈ 35.6 µg/mL) | – | 14.8 nM | Papp B→A (in vitro [4]): 568 nm/s; Papp (in vitro [4]): 98.4 nm/s; half-life (in vitro [10]): > 100 h
